Among the data in ChEMBL document CHEMBL1201862, “PubChem BioAssay data set” (2004) are EC50 and CC50 values, retold here.

Activity calls are given as the source filed them. Rule as the data show it, for most assays here: actives have a measured EC50 and inactives only a lower limit.

As usually defined, the EC50 is the concentration at which the effect is half-maximal. As a reminder, the CC50 is the concentration that lowers cell viability or growth by half.

Experiment [1] has as its target T1, Heat shock factor protein 1 (Mus musculus, UniProt P38532).
T1 sequence (P38532 whole entry): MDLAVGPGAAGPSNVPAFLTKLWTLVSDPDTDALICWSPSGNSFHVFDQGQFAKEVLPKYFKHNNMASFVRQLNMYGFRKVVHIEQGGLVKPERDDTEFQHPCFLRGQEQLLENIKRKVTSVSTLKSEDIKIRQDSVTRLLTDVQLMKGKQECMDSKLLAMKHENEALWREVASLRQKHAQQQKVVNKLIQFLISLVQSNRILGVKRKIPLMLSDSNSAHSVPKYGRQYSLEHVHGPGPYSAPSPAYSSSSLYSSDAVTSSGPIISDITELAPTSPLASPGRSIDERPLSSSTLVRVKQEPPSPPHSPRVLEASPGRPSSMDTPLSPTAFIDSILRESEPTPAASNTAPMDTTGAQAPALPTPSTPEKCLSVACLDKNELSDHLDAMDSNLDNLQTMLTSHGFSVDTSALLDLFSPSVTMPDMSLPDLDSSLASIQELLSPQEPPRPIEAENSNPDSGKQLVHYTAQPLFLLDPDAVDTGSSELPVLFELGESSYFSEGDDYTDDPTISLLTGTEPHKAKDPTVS
Nature of the experiment: inhibition of MG132-induced HSE-luciferase signal, confirmation, cell-based, NIH3T3, luminescence, dose retest (AID 2382).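 Also: NIH3T3 fibroblasts with HSF1-driven luciferase reporter stressed by proteasome inhibitor MG132; luminescence from HSF1-driven luciferase expression after 8 hours of MG132 stress.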 Format: functional.

Experiment [2] concerns Streptococcus sp. 'group A'. Nature of the experiment: growth inhibition of control SK(-) GAS strain, dose response, counter-screen for streptokinase expression inhibitor project, luminescence, kanamycin, BacTiterGlo, confirmation (AID 1900). The format is functional, organism-based. On the technique in general: Counterscreens check selectivity or assay interference.
A further experiment concerns the target T2, Streptokinase A (Streptococcus pyogenes serotype M1, UniProt P10520).
T2 sequence (P10520 whole entry): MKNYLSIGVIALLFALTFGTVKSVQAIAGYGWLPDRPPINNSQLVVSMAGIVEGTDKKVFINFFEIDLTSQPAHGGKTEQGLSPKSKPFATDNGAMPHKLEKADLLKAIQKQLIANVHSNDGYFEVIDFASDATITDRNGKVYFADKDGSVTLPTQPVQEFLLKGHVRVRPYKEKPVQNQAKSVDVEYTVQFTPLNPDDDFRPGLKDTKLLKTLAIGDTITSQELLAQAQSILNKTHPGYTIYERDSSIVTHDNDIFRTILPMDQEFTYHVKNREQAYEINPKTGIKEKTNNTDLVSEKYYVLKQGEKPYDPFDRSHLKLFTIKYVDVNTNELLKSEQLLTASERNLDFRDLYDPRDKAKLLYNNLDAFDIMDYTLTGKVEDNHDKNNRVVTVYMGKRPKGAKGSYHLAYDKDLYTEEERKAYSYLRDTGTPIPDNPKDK
Description: S. pyogenes streptokinase expression inhibitors, potency, dose response, plasminogen activation absorbance, OD405 (AID 1914).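 Also: secreted streptokinase activity via plasminogen activation per viability signal from cell pellet.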 The format is functional, Streptococcus pyogenes M1 GAS.

For another experiment, the system named is Streptococcus. Nature of the experiment: Group A Streptococcus viability loss, dose response, counter-screen for streptokinase expression inhibitor project, luminescence, BacTiterGlo (AID 1915).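 Also: potency for reduction of bacterial viability or growth.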 The format is functional, organism-based.
Experiment [3] in a line: inhibitors of firefly luciferase expression or activity, dose response, H4 neuroglioma cells, luminescence (AID 1990). The format is functional, cell-based.
Experiment [4] in a line: Luminescence Cell-Based Dose Response HTS to Identify Inhibitors of 5'UTR Stem-Loop Driven Prion Protein mRNA Translation in H4 Neuroglioblastoma Cells. [Related pubchem assays: 1827 (Project Summary), 1813 (Primary HTS)]. Format: functional.
Experiment [5] is described as follows: inhibitors of SNCA 5'UTR-driven reporter translation, confirmation, H4 neuroglioma cells, luminescence (AID 1988). The format is functional, cell-based.
Experiment [6] in a line: HEp-2 cell cytotoxicity, dose response, cytotoxicity control for RSV inhibitor project, HTS (AID 2410). The format is functional. The settings on record: human respiratory syncytial virus.
Experiment [7] can be described thus: inhibitors of intracellular T. cruzi replication, confirmation, NIH3T3 host cells, beta-gal luminescence (AID 2044).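 Also: intracellular parasites grown in NIH/3T3 mouse fibroblasts as host cells; luminescent beta-galactosidase reporter signal from transgenic T. cruzi replicating inside host cells; inhibitors lower the luminescence signal.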 Format: functional, cell-based.
Experiment [8] is described as follows: cytotoxicity toward NIH3T3 fibroblasts, dose response, counter-screen, cell-based, ATP luminescence, mouse fibroblasts (AID 2010).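 Also: cells exposed to compound for about 90 hours before reading.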 The format is functional.

For `COc1ccc(-n2c(C)cc(-c3csc(NC(=O)c4ccc(S(=O)(=O)N(C)C)cc4)n3)c2C)cc1`, the EC50 in [1] was > 195 µM (not active).
Turning to `CCC(C(=O)NCC1CCCO1)n1nc(C)c2sc3ccccc3c2c1=O` (stereo not drawn), the EC50 (in experiment [2]; on Streptokinase A; in the experiment with Streptococcus) was > 150 µM (not active) throughout.
As for `Cc1nn(Cc2ccc(F)cc2)c(C)c1NC(=O)c1cc(-c2ccc3c(c2)OCO3)on1`, the EC50 in experiment [3] was 15.7 µM (active); in [4], > 120 µM (not active); in [5], > 120 µM (not active).
For `N#CCc1c(C#N)c(N)nc(N2CCCC2)c1C#N`, the CC50 in experiment [6] is 19.6 µM (active).
In the case of `CCc1ccccc1Nc1nc2ccccc2n1CC`, the EC50 in [3] is > 120 µM (not active); in experiment [4] it was > 120 µM (not active); in experiment [5], 23 µM (active).
`CCCC(=O)Nc1nc(C)c(-c2csc(Nc3ccc(Cl)cc3)n2)s1`: the CC50 in experiment [6] is 7.41 µM (active).
Same read-out and setting: with `COc1ccc(CCNC(=O)c2ccc3c(c2)N(Cc2ccc(F)cc2)CCS3)cc1OC` the figure was 25.7 µM (active).
Still for that read-out and setting: with `CCC1(C)Cc2c(sc3nc(SC)nc(N)c23)CO1` (stereo not drawn) the figure was 31 µM (active).
For `COc1ccc(-c2c(C#N)c(N)nc3sc(C(=O)c4ccccc4)c(N)c23)cc1`, the values for the EC50 (in experiment [2]; at Streptokinase A; in the experiment on Streptococcus) were 5.29 µM (active), > 150 µM (not active) and > 150 µM (not active), respectively.
Regarding `CCOC(=O)c1c(C)[nH]c(C)c1S(=O)(=O)NCCc1cccs1`, the EC50 in experiment [1] is on record as > 195 µM (not active).
As for `Cc1nnc(C)c2c(C)n(C(c3ccccc3)c3ccccc3)c(C)c12`, in experiment [6], the CC50 was 18.3 µM (active). Further, the 50% effective concentration (EC50) in [7] was 1.46 µM (active); in experiment [8] it was > 60 µM (not active).
For `CCOc1ccc2c3c(c(=O)oc2c1OCC)CCCC3`, in experiment [6], the CC50 was 44 µM (active).
With `C/C=C/c1ccc(OCC(=O)Nc2ccc(OC)c(OC)c2)c(OC)c1`, the EC50 in [1] is given as > 195 µM (not active).
Regarding `CCn1c(-c2ccccc2)c[nH]c1=S`, the EC50 at Streptokinase A is reported as > 150 µM (not active).
Turning to `COc1ccccc1CNC(=O)c1ccc2[nH]c3nc4ccccc4c-3nc2c1`, the CC50 in experiment [6] is > 50 µM (active).
With `CC(C)(C)n1nnnc1CN1CCC(NC(=O)NC2CCCCC2)CC1`, the EC50 in experiment [1] is 33.9 µM (active).
On to `c1ccc(-c2nc(C3CCCCC3)c3sccc3n2)cc1`, for which the EC50 in experiment [2] is 4.26 µM (active); at Streptokinase A it was 23.9 µM (active); in the experiment on Streptococcus it was 15.5 µM (active).
For the molecule `Cc1nn(-c2ccccc2)c(Cl)c1C1C(C#N)=C(N)OC2=C1C(=O)CC(C)(C)C2` (stereo not drawn), the half-maximal effective concentration (EC50) in experiment [2] is 1.4 µM (active); on Streptokinase A, > 150 µM (not active); in the experiment on Streptococcus, 16.1 µM (active).
In the same order, the values of `COc1cc(C)ccc1NC(=O)Cc1csc(NC(=O)Nc2ccccc2OC)n1` are 15.4 µM (active), 104 µM (active) and > 150 µM (not active).
Consider `COc1ccc(CNc2nc3c(c(=O)[nH]c(=O)n3C)n2Cc2ccccc2C)cc1`, for which the concentration for a half-maximal effect (EC50) in experiment [1] is reported as > 195 µM (not active).
As to `COc1ccc2oc(C(=O)OCC(=O)N(C)CC(=O)Nc3ccc(C)cc3)c(C)c2c1`, the EC50 in [1] is > 195 µM (not active).
Turning to `COc1cccc(OC)c1CC1SC(=O)NC1=O` (stereo not drawn), the CC50 in experiment [6] is 40.2 µM (active).
As to `C#CCN(C#N)c1nc(NCC)nc(NC(C)C)n1`, the EC50 in [3] was 28.9 µM (active); in experiment [4], > 120 µM (not active); in experiment [5], 16 µM (active).
In the same order, the values of `COc1cccc(C2[C@H](C)C3(CCN2C)OCCO3)c1` (stereo partly drawn) are > 120 µM (not active), > 120 µM (not active) and > 120 µM (not active).
In the same order, the values of `COc1ccc(C2C(C#N)=C(N)Oc3cc4c(cc32)OCO4)cc1` (stereo not drawn) are > 120 µM (not active), 74 µM (active) and 10.9 µM (active).
As for `COc1cc(OC)c2c3c(c(C4CCCCC4)nc2c1)CCC3`, in experiment [6], the CC50 is 30.1 µM (active).
As to `CCC(C)(C)c1ccc(Oc2ccc(NC(=O)COC(=O)C3=COCCO3)cc2)cc1`, the EC50 in [3] is 6.08 µM (active); in [4], 10.1 µM (active); in [5], 8.92 µM (active).
In the case of `CCOC(=O)C1CCN(C(=O)CCc2c(C)nc3cc(-c4ccccc4)nn3c2C)CC1`, the EC50 in [3] is 18.2 µM (active); in experiment [4], 27.1 µM (active).
In the case of `Cc1ccc(-c2cc(-c3ccccc3Cl)[nH]n2)c(O)c1`, the EC50 in [2] is 6.71 µM (active); at Streptokinase A, 20.1 µM (inconclusive); with Streptococcus, 13.6 µM (active).
For `CO[C@@]1(NC(=O)Cc2cccs2)C(=O)N2C(C(=O)O)=C(COC(N)=O)CS[C@@H]21` [CEFOXITIN SODIUM], in that order: 5.58 µM (active), > 150 µM (not active) and 16.2 µM (active).
With `Cc1cc(C)n(CC(C)NC(=O)c2cc(COc3ccc(F)c(F)c3)on2)n1` (stereo not drawn), the EC50 in [1] is reported as > 195 µM (not active).
The same measure, in the same setting: with `CCOC(=O)c1c(C)n(C)c2ccc(OC)c(NC(=O)CN3CCSCC3)c12` the figure was > 195 µM (not active).
In the case of `COc1cc(NS(=O)(=O)c2csc(C(N)=O)c2)cc(OC)c1`, the EC50 in experiment [1] is > 195 µM (not active).
Same read-out and setting: as for `Cc1cc(C(=O)COC(=O)c2ccco2)c(C)n1Cc1ccco1`, the figure is < 0.16 µM (active).
With `Cc1ccc(C)c(C(=O)OCC(=O)Nc2cccc(S(=O)(=O)NC3=NCCCCC3)c2)c1`, in experiment [6], the CC50 is 20.6 µM (active).
Regarding `Cc1nc(N)sc1-c1csc(Nc2ccc(Cl)cn2)n1`, in experiment [6], the CC50 was 7.95 µM (active).
Turning to `CC1(OC(=O)CCc2ccccc2)C(=O)C=C2C=C(c3ccc(C#N)cc3)N(CCc3ccccn3)C=C2C1=O` (stereo not drawn), in experiment [1], the concentration giving a half-maximal response (EC50) was > 195 µM (not active).
In the case of `N#Cc1c(NC(=S)NC(=O)C2CCCC2)sc2c1CCCCC2`, the EC50 is 8.59 µM (active) in experiment [2], 2.9 µM (active) on Streptokinase A and 27.1 µM (active) in the experiment with Streptococcus.
Regarding `Cc1ccc(C)c2sc(N3CCN(C(=O)c4ccc([N+](=O)[O-])o4)CC3)nc12`, the 50% cytotoxic concentration (CC50) in experiment [6] is 16.9 µM (active). The EC50 in experiment [2] is 2.67 µM (active); on Streptokinase A, 2.59 µM (active); in the experiment with Streptococcus it was 9.98 µM (active).
For `CCCn1cc(CN2CCC(n3nccc3NC(=O)c3ccccc3)CC2)c(C)n1`, the EC50 (in [2]; on Streptokinase A; in the experiment on Streptococcus) was > 150 µM (not active) each time.
In the case of `Cc1cc(C(C)(C)C)cc(C)c1COC(=O)c1cccnc1`, the EC50 in experiment [2] is 15.8 µM (active); on Streptokinase A, > 150 µM (not active); in the experiment on Streptococcus, > 150 µM (not active).
As for `c1ccc(OCc2nc3c4c(ncn3n2)-c2ccccc2CC42CCCC2)cc1`, the figures for the EC50 (in experiment [2]; on Streptokinase A; with Streptococcus) were 114 µM (active), 22 µM (active) and > 150 µM (not active), respectively.
Take `COc1cccc(CC(=O)N[C@@H](CCSC)c2nc3ccccc3[nH]2)c1`: the EC50 in experiment [1] is > 195 µM (not active).
The same measure, in the same setting: with `COc1ccc(CCNC(=O)Cc2cccs2)cc1` the figure was > 195 µM (not active).
For `O=C1N[C@@H](Cc2ccccc2)C(=O)N2[C@@H]3N(S(=O)(=O)c4ccc(F)cc4)c4ccccc4[C@]3(Br)C[C@@H]12`, in [6], the CC50 was > 50 µM (active).
As for `COc1cnc(-c2ccccn2)nc1Oc1ccccc1`, the EC50 (in [2]; at Streptokinase A; in the experiment on Streptococcus) was > 150 µM (not active) each time.
